According to patent publication US11744808B2, “Compositions and methods for treating non-alcoholic steatohepatitis” (ALGERNON PHARMACEUTICALS INC., priority 2018, dated 2023):

Key:
[1] = system: murine STAM™ model of NASH-HCC; test: Murine STAM model of NASH-HCC, second study (Example 2): H&E NAFLD activity scoring and Sirius red fibrosis area; assay type: in vivo, C57BL/6 mice; conditions: for NAFLD Activity Scores, hepatic steatosis, lobular inflammation and hepatocellular ballooning (conclusion): Bromantane at 40 mg/kg, Cenicriviroc at 30 mg/kg
Protocol: As before, male newborn C57BL/6 mice were used. All mice were born from pathogen-free 14 day-pregnant mice obtained from Japan SLC, Inc. (Hamamatsu, Japan) prior to the start of the study.
(§1) The murine STAM™ model of NASH-HCC was performed according to previously described methods known in the art (Takakura et al, Characterization of non-alcoholic steatohepatitis, Anticancer Res, 34(9):4849-55 (2014); Fujii et al, (2013)). NASH was induced in male mice by a single subcutaneous injection of 200 μg of streptozotocin (STZ, Sigma, Mo., USA) at 2 days after birth and continuous feeding after 4 weeks of age (day 28±2) with a high fat diet (CLEA Japan Inc, Tokyo, Japan) given ad libitum.
Following induction of NASH, the mice were randomized into 7 individual study groups of 8 mice each at 6 weeks of age (day 42±2) based on their body weight, the day before the start of treatment.
One day following randomization, the mice were administered a once-daily oral treatment from 6 weeks of age plus one day (day 43±2, treatment Day 1) to 9 weeks of age. The mice in 6 of the 7 study groups were treated individually with a therapeutic amount of a pharmacologic compound formulated with a pharmaceutically acceptable vehicle. […] The pharmaceutically acceptable vehicle in all groups was 0.5% CMC. […] Individual body weight was measured daily during the treatment period. Survival, clinical signs and behavior of mice were also monitored daily.
In each case, a volume of 10 mL/kg of 0.5% CMC was administered orally with (or without) the active ingredient as noted in Table 3 from 6 to 9 weeks of age. All mice were then sacrificed at 9 weeks of age. Blood samples were collected from all mice and the liver from each mouse was removed for analysis.
(§2) Assessment of Steatohepatitis: Liver cross-sections were subjected to hematoxylin and eosin (H&E) staining using standard techniques for histological assessment of hepatic steatosis, lobular inflammation and hepatocellular ballooning. The level of steatohepatitis severity in each liver cross-section was indicated by NAFLD Activity Scores of: 0 (normal), 1-2 (NAFLD), 3-4 (borderline) or at least 5 (NASH) in 3 randomly selected fields of H&E-stained liver cross-sections of 4 μm thickness at ×50 magnification for evaluation of steatosis and ×200 magnification each for evaluation of inflammation and evaluation of ballooning. The NAFLD Activity Score is the unweighted sum of the following: 1) hepatic steatosis score (0-3); 2) lobular inflammation score ([…]); 3) hepatocellular ballooning score (0-2).
The liver cross-sections of the treated groups were also subjected to Sirius-red staining using standard techniques for histological estimation of the percentage of fibrosis area. For quantitative analysis of fibrosis area, bright field images of Sirius red-stained sections were captured around the central vein using a digital camera (DFC295; Leica, Germany) at 200-fold magnification, and the positive areas in 5 fields/section were measured using ImageJ software (National Institute of Health, USA).
(§3) Values are arithmetic means. Comparison between the study group and positive control group was performed using a two-tailed, heteroscedastic (two-sample unequal variance) Student's T-Test. A P-value of <0.05 was considered statistically significant following a Bonferroni post-hoc statistical correction analysis for multiple groups (Bonferroni Multiple Comparison Test). In this case, the correction factor was 7, corresponding to the number of study groups. Following the usual convention, the P-value classification and statistical significance levels chosen are shown in Table 2 (above) alongside their corresponding classification scores.

[2] = system: murine STAM™ model of NASH-HCC; test: Murine STAM model of NASH-HCC, first study (Example 1): H&E NAFLD activity scoring and Sirius red fibrosis area; assay type: in vivo, C57BL/6 mice; conditions: for hepatocellular ballooning score relative to Vehicle control / NAFLD activity score relative to Vehicle control / fibrosis area (Sirius red-positive area) compared with the Vehicle group: once daily oral, 6 to 9 weeks of age, Bromantane 20 mg/kg, Istradefylline 18 mg/kg; for hepatocellular ballooning score relative to Vehicle control: Irsogladine 1 mg/kg; for NAFLD activity score relative to Vehicle control / fibrosis area (Sirius red-positive area) compared with the Vehicle group: Telmisartan 10 mg/kg
Protocol: Male newborn C57BL/6 mice were used. All mice were born from pathogen-free 14 day-pregnant mice obtained from Japan SLC, Inc. (Hamamatsu, Japan) prior to the start of the study.
as §1
Following induction of NASH, the mice were randomized into 12 individual study groups of 8 mice each at 6 weeks of age (day 42±2) based on body weight, the day before the start of treatment.
One day following randomization, the mice were administered a once-daily oral treatment from 6 weeks of age plus one day (day 43±2, treatment Day 1) to 9 weeks of age (hereinafter known as the “treatment period”). The mice in 11 of the 12 study groups (hereafter known as “treatment groups”) were treated individually with a distinct pharmacologic compound formulated with a pharmaceutically acceptable vehicle. […] The pharmaceutically acceptable vehicle in all groups was 0.5% carboxymethyl cellulose (CMC). […] Individual body weight was measured daily during the treatment period. Survival, clinical signs and behavior of mice were also monitored daily.
In each case, a volume of 10 mL/kg of 0.5% CMC was administered orally with (or without) the active ingredient as noted in Table 1 from 6 to 9 weeks of age until sacrifice. One exception being Trapadil, which was administered orally with one dosing of 120 mg/kg on Day 0 and then at the daily dose of 60 mg/kg starting on treatment Day 1. All mice were then sacrificed at 9 weeks of age. Blood samples were collected from all mice and the liver from each mouse was removed for analysis.
as §2
For quantitative analysis of fibrosis area, bright field images of Sirius red-stained sections were captured around the central vein using a digital camera (DFC295; Leica, Germany) at 200-fold magnification, and the positive areas in 5 fields/section were measured using ImageJ software (National Institute of Health, USA).
as §3, with “12,” for “7,”, “2” for “2 (above)”

[3] = once daily oral, 6 to 9 weeks of age, Bromantane high 40 mg/kg, Bemithyl 200 mg/kg, Cenicriviroc 30 mg/kg, Telmisartan 10 mg/kg
[4] = once daily oral, 6 to 9 weeks of age, Bromantane high 40 mg/kg, Cenicriviroc 30 mg/kg, Bemithyl 200 mg/kg, Telmisartan 10 mg/kg

| Structure (SMILES) | fibrosis area (Sirius red-positive area) compared with the Vehicle group [1, 3] | NAFLD activity score relative to Vehicle control [1, 4] | hepatocellular ballooning score relative to Vehicle control [2] | NAFLD activity score relative to Vehicle control [2] | fibrosis area (Sirius red-positive area) compared with the Vehicle group [2] | NAFLD Activity Scores, hepatic steatosis, lobular inflammation and hepatocellular ballooning (conclusion) [1] | steatosis score relative to Vehicle control ([1]; once daily oral, 6 to 9 weeks of age, Bromantane high 40 mg/kg, Telmisartan 10 mg/kg) | fibrosis area (Sirius red-positive area) compared with the Vehicle group ([1]; once daily oral, 6 to 9 weeks of age, Bromantane low 20 mg/kg) | NAFLD Activity Scores, hepatic steatosis, lobular inflammation and hepatocellular ballooning (conclusion) ([2]; Istradefylline at 18 mg/kg, Telmisartan at 10 mg/kg oral, compared to the Vehicle group) |
| --- | --- | --- | --- | --- | --- | --- | --- | --- | --- |
| CCSc1nc2ccccc2[nH]1 [Bemithyl, 2-Ethylsulfanyl-1H-benzoimidazole] | particularly statistically significant decrease | statistically significant and clinically relevant composite reduction |  |  |  |  |  |  |  |
| Brc1ccc(NC2C3CC4CC(C3)CC2C4)cc1 (stereo not drawn) [Bromantane, N-(4-Bromophenyl)adamantan-2-amine] | statistically significant decreases | Statistically significant reductions | Statistically significant reductions | Statistically significant reductions | significant decreases | showed improvement | Statistically significant reductions | statistically significant decreases |  |
| CCCCOCCOc1ccc(-c2ccc3c(c2)/C=C(/C(=O)Nc2ccc([S@@+]([O-])Cc4cncn4CCC)cc2)CCCN3CC(C)C)cc1 [Cenicriviroc] | statistically significant decreases | Statistically significant reductions |  |  |  | showed improvement |  |  |  |
| Nc1nc(N)nc(-c2cc(Cl)ccc2Cl)n1 [Irsogladine, 6-(2,5-Dichlorophenyl)-1,3,5-triazine-2,4-diamine] |  |  | Statistically significant reductions |  |  |  |  |  |  |
| CCn1c(=O)c2c(nc(/C=C/c3ccc(OC)c(OC)c3)n2C)n(CC)c1=O [Istradefylline, 8-[(E)-2-(3,4-dimethoxyphenyl)vinyl]-1,3-diethyl-7-methyl-3,7-dihydro-1H-purine-2,6-dione] |  |  | Statistically significant reductions | Statistically significant reductions | significant decreases |  |  |  | showed improvement |
